{"source": "patent US6486305B1", "about": "“METHOD OF MODULATING THE EFFICIENCY OF TRANSLATION TERMINATION AND DEGRADATION OF ABERRANT MRNA INVOLVING A SURVEILLANCE COMPLEX COMPRISING HUMAN UPF1P, EUCARYOTIC RELEASE FACTOR 1 AND EUCARYOTIC RELEASE FACTOR 3” (priority 1998, dated 2002)", "molecules": {"B1": {"name": "Upf1K436A: purified K436A form of the Upf1p, mutation of the conserved lysine residue in position 436 (protein, UniProt P30771 1-971, looked up, variant K436A)", "ATP-dependent helicase NAM7": "MVGSGSHTPYDISNSPSDVNVQPATQLNSTLVEDDDVDNQLFEEAQVTETGFRSPSASDNSCAYCGIDSAKCVIKCNSCKKWFCNTKNGTSSSHIVNHLVLSHHNVVSLHPDSDLGDTVLECYNCGRKNVFLLGFVSAKSEAVVVLLCRIPCAQTKNANWDTDQWQPLIEDRQLLSWVAEQPTEEEKLKARLITPSQISKLEAKWRSNKDATINDIDAPEEQEAIPPLLLRYQDAYEYQRSYGPLIKLEADYDKQLKESQALEHISVSWSLALNNRHLASFTLSTFESNELKVAIGDEMILWYSGMQHPDWEGRGYIVRLPNSFQDTFTLELKPSKTPPPTHLTTGFTAEFIWKGTSYDRMQDALKKFAIDKKSISGYLYYKILGHQVVDISFDVPLPKEFSIPNFAQLNSSQSNAVSHVLQRPLSLIQGPPGTGATVTSATIVYHLSKIHKDRILVCAPSNVAVDHLAAKLRDLGLKVVRLTAKSREDVESSVSNLALHNLVGRGAKGELKNLLKLKDEVGELSASDTKRFVKLVRKTEAEILNKADVVCCTCVGAGDKRLDTKFRTVLIDESTQASEPECLIPIVKGAKQVILVGDHQQLGPVILERKAADAGLKQSLFERLISLGHVPIRLEVQYRMNPYLSEFPSNMFYEGSLQNGVTIEQRTVPNSKFPWPIRGIPMMFWANYGREEISANGTSFLNRIEAMNCERIITKLFRDGVKPEQIGVITPYEGQRAYILQYMQMNGSLDKDLYIKVEVASVDAFQGREKDYIILSCVRANEQQAIGFLRDPRRLNVGLTRAKYGLVILGNPRSLARNTLWNHLLIHFREKGCLVEGTLDNLQLCTVQLVRPQPRKTERPMNAQFNVESEMGDFPKFQDFDAQSMVSFSGQIGDFGNAFVDNTELSSYINNEYWNFENFKSAFSQKQNRNEIDDRNLYQEEASHLNSNFARELQREEQKHELSKDFSNLGI"}}, "key": {"[1]": {"target": "T1, Upf1p-eRF3 interaction (Saccharomyces cerevisiae, UniProt P30771)", "T1 construct": "FLAG (N); made in house; host or cells: GST-eRF3: E. coli BL21(DE3) pLysS with pGEX2T-SUP35", "T1 sequence (P30771 1-971)": "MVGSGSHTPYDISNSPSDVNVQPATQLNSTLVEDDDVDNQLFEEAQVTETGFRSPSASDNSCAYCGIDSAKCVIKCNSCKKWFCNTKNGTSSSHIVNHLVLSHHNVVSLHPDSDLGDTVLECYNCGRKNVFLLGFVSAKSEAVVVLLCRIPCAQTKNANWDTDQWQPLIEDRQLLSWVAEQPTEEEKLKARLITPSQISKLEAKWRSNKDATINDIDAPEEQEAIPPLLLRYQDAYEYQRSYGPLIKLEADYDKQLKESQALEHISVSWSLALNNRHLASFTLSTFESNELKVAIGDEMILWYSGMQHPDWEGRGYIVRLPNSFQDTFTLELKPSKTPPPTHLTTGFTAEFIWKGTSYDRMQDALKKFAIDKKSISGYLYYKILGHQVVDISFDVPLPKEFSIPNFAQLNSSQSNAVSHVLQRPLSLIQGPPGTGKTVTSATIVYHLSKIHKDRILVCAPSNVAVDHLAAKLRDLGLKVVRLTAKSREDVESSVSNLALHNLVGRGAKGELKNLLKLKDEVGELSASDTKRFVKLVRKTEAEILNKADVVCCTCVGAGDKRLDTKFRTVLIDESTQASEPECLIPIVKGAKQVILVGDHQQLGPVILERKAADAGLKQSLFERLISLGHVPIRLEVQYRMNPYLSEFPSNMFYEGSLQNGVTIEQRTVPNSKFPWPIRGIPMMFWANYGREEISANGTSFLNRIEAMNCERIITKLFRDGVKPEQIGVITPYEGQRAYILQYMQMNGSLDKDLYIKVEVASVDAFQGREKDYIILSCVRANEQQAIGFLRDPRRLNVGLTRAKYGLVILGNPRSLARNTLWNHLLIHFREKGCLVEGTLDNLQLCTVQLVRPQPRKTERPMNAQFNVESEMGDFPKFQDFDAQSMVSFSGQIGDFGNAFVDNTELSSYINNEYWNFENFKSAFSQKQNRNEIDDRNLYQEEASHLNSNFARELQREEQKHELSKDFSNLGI", "test": "GST-eRF3 pull-down of purified FLAG-Upf1p with immunoblotting", "format": "binding, yeast", "settings": "1 mM ATP, 1 mM GTP, or 100 μg/ml poly(U) RNA", "experimental": "(§1) FIGS. 1A-1B. The yeast Upf1 protein interacts specifically with the peptidyl release factors. (1A) GST-eRF1 or GST-eRF3 […] proteins bind specifically to Upf1p in a yeast extract. Cytoplasmic extracts from a yeast strain BJ3505 transformed with either pG-1 (vector) or pG-1FLAGUPF1 (Flag-Upf1p) were prepared in IBTB and incubated with 30 μl GST, GST-eRF1 or GST-eRF3 sepharose-protein complexes. The sepharose-protein complexes were washed 2 times in IBTB (see materials and methods), resuspended in SDS-PAGE loading buffer, separated on an 8% SDS-PAGE gel and immunoblotted using anti-FLAG antibody. (1B) Upf1p interacts directly with both eRF1 and eRF3. Upf1p was purified as described previously (Czaplinski et al. 1995). 200 ng of Upf1p was added to 10 μl of GST, GST-eRF1 or GST-eRF3 sepharose-protein complexes in a total reaction volume of 200 μl in IBTB supplemented with KCl to the final concentration indicated above each lane. After 1 hour at 4° C. sepharose-protein complexes were washed for 3 minutes with 1 ml of IBTB supplemented with KCl to the final concentration indicated above each lane. The purified sepharose-protein complexes were resuspended in SDS-PAGE loading buffer and separated on a 7.5% SDS-PAGE gel and immunoblotted as in (A).\n(§2) FIGS. 3A-3B. eRF3 and RNA compete for binding to Upf1p. (3A) Poly(U) RNA prevents Upf1p from binding to eRF3. Reaction mixtures were prepared as described in FIG. 1B, except that binding was performed in TBSTB (TBST with 100 μg/ml BSA) and reaction mixtures contained 1 mM ATP, 1 mM GTP, or 100 μg/ml poly(U) RNA as indicated above each lane. The reaction mixtures were mixed for 1 hour at 4° C. Following mixing, the complexes were washed as in FIG. 1B with TBSTB containing 1 mM ATP, 1 mM GTP, or 100 μg/ml poly(U) RNA as indicated above each lane. […]\n(§3) Further, purified Flag-Upf1p with poly(U) RNA was incubated in the presence or absence of ATP. Following incubation, GST-eRF3 was added to the reaction mixtures and the Upf1-eRF3 interaction was monitored by immunoblotting analysis as before."}, "[2]": {"tested_on": "−1 ribosomal frameshifting", "test": "β-galactosidase assay of −1 ribosomal frameshifting in the presence of paromomycin", "format": "cell-based, Saccharomyces cerevisiae", "experimental": "Cloning of UPF3: The strategy used to clone the UPF3 gene was the same that was used to clone UPF2 (Cui, Y, K. W. Hagan, S. Zhang, and Peltz, S. W. (1995)). […] Killer assays, frameshifting assays and extraction and analysis of total nucleic acids: The killer assay was carried out as previously described (Dinman, J. D., and Wickner, R. B. (1992)) by replica plating colonies onto 4.7 MB plates newly seeded with a lawn of 5×47 killer indicator cells (0.5 ml of a suspension at 1 unit of optical density at 550 nm per ml per plate). After 2 days at 20° C., killer activity was observed as a zone of growth inhibition around the killer colonies. To quantitate loss of killer activity, colonies that had been identified as killer^+ were re-streaked for single colonies and the percentage of killer^+ colonies were determined. The efficiencies of −1 frameshifting were determined as previously described (Cui, Y. Dinman, J. D., and Peltz, S. W. (1996); Dinman, J. D., Ruiz-Echevarria, M. J., Czaplinski, K. and Peltz, S. W. (1 997b)) using the 0-frame control (pTI25) and −1 reporter (pF8) plasmids. […]\nThe effect of paromomycin on −1 ribosomal frameshifting was analyzed further by β-galactosidase assay using plasmids pF8 (−1 frameshift reporter construct) or pTI25 (zero frame control) in isogenic wild-type and upf3Δ strains. […]"}, "[3]": {"tested_on": "isogenic wild-type and upf3Δ strains", "test": "Paromomycin sensitivity, zone of growth inhibition around a disc on a lawn of cells", "format": "cell-based, Saccharomyces cerevisiae", "experimental": "FIG. 11. Paromomycin sensitivity was monitored in isogenic wild-type and upf3Δ strains by placing a disc containing 1 mg of paromomycin onto a lawn of cells and determining the zone of growth inhibition around the disc.\nParomomycin sensitivity was monitored in isogenic wild-type and upf3Δ strains by placing a disc containing 1 mg of paromomycin onto a lawn of cells and determining the zone of growth inhibition around the disc (FIG. 11)."}, "[4]": {"target": "T2, Upf1p-eRF1 interaction (Saccharomyces cerevisiae, UniProt P30771, K436A)", "T2 construct": "FLAG (N); made in house; host or cells: GST-eRF1: E. coli BL21(DE3) pLysS with pGEX2T-SUP45", "test": "GST-eRF1 pull-down of purified FLAG-Upf1p with immunoblotting", "format": "binding, yeast", "settings": "GST-eRF1, various KCl concentrations", "experimental": "as §1, with “After 1 hour at 4° C. sepharose-protein complexes were washed for 3 minutes with 1 ml of IBTB supplemented with KCl to the final concentration indicated above each lane. The purified sepharose-protein complexes were resuspended in SDS-PAGE loading buffer and separated on a 7.5% SDS-PAGE gel and immunoblotted as in (A).” left out\nPrevious results have shown that strains harboring mutations in the conserved lysine residue in position 436 of the Upf1p (K436) result in stabilization of nonsense-containing mRNAs and a nonsense suppression phenotype (Weng et al., 1996a). […] Reaction mixtures containing the K436A form of Upf1p, GST-eRF1 and various KCl concentrations were prepared,and their interaction was monitored as described above."}, "[5]": {"target": "T3, Upf1p-eRF3 interaction (Saccharomyces cerevisiae, UniProt P30771, K436A)", "T3 construct": "FLAG (N); made in house; host or cells: GST-eRF3: E. coli BL21(DE3) pLysS with pGEX2T-SUP35", "test": "GST-eRF3 pull-down of purified FLAG-Upf1p with immunoblotting", "format": "binding, yeast", "settings": "GST-eRF3", "experimental": "as §1, §2, §3"}}, "note": "“Also recorded” adds a separate entry of the source.", "data": [{"molecule": "Nc1ncnc2c1ncn2[C@@H]1O[C@H](COP(=O)(O)OP(=O)(O)OP(=O)(O)O)[C@@H](O)[C@H]1O", "note": "[ATP]", "values": [{"measurement": "Effect on interaction between Upf1p and eRF3", "setting": "[1]", "value": "did not affect the interaction; also recorded: did not prevent association of Upf1p with eRF3"}]}, {"molecule": "NC[C@@H]1O[C@H](O[C@H]2[C@@H](O)[C@H](O[C@@H]3[C@@H](O)[C@H](N)C[C@H](N)[C@H]3O[C@H]3O[C@H](CO)[C@@H](O)[C@H](O)[C@H]3N)O[C@@H]2CO)[C@H](N)[C@@H](O)[C@@H]1O", "note": "[paromomycin]", "values": [{"measurement": "β-galactosidase activity (−1 frameshift reporter)", "setting": "[2]; upf3Δ cells carrying pF8, liquid media, different concentrations of the drug", "value": "increased continuously with increased concentrations of paromomycin"}, {"measurement": "β-galactosidase activity", "setting": "[2]; wild-type cells containing pF8, or any strain carrying pTI25 (zero frame control)", "value": "unaffected"}, {"measurement": "Paromomycin sensitivity (hypersensitivity)", "setting": "[3]; upf1Δ or upf2Δ strains", "value": "Neither the upf1Δ or upf2Δ strains demonstrate hypersensitivity"}, {"measurement": "Paromomycin sensitivity (zone of growth inhibition)", "setting": "[3]; upf3Δ strain vs isogenic wild-type, disc containing 1 mg of paromomycin", "value": "more sensitive to paromomycin than the isogenic wild-type strain"}]}, {"molecule": "Nc1nc2c(ncn2[C@@H]2O[C@H](COP(=O)(O)OP(=O)(O)OP(=O)(O)O)[C@@H](O)[C@H]2O)c(=O)[nH]1", "note": "[GTP]", "values": [{"measurement": "Effect on interaction between Upf1p and eRF3", "setting": "[1]", "value": "not affected"}]}, {"molecule": "B1", "values": [{"measurement": "Reduction of interaction with eRF1 relative to wild-type Upf1", "setting": "[4]", "value": "4 to 6", "unit": "fold"}, {"measurement": "Interaction with eRF3 relative to wild-type Upf1p", "setting": "[5]", "value": "equivalent affinity as the wild-type Upf1p"}]}]}
